Drawing on patent publication US20240327393A1 (SIRONAX LTD., priority 2021, published 2024), this text covers EC50 for 26 molecules.

One assay concerns HT-1080 (ATCC, CCL-121) cells. Nature of the assay: HT-1080 cell viability assay with ferroptosis inducer RSL3 (Cell Titer-Glo). In kind it is cell-based. The conditions noted are these: HT-1080 cells treated with RSL3; 3-fold, 10-point dilution, 1.1 μM highest concentration; Table 3; read-out: EC50 (nM), ferroptosis inhibitory activity. The method, boiled down: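 EC50 was derived by sigmoidal dose-response regression of CellTiter-Glo luminescence viability, expressed relative to untreated wells. Compounds were tested in a ten-point, threefold dilution series (highest 1.1 μM) in the presence of the ferroptosis inducer RSL3. HT-1080 cells had been seeded at 6000 per well and grown overnight first.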
(In general: ATP-based viability assays read luminescence as a measure of living cells.)
Take `CC1CN(c2ccc(Nc3ccc4c(c3)nnn4C)cc2)CC(C)O1` (centres unmarked) [Compound 458, N-(4-(2,6-dimethylmorpholino)phenyl)-1-methyl-1H-benzo[d][1,2,3]triazol-5-amine]: the EC50 (as a rule, the concentration that produces a half-maximal response) lay within 0.1 to 100 nM.

The same assay, now with this note: Homo sapiens; HT-1080 cells treated with RSL3; 3-fold, 10-point dilution, 1.1 μM highest concentration; Table 2; read-out: EC50 (nM), ferroptosis inhibitory activity.
Turning to `CN1CCN(CC(=O)N2Cc3ccc(Nc4ccc(N5CCCCC5)cc4)cc3C2)CC1` [Compound 163, 2-(4-methylpiperazin-1-yl)-1-(5-((4-(piperidin-1-yl)phenyl)amino)isoindolin-2-yl)ethan-1-one], the EC50 lay within 0.1 to 100 nM.
In the case of `CC1CC(c2ccc(Nc3ccc4c(c3)OCC(=O)N4C)cc2)CC(C)O1` (centres unmarked) [Compound 64, 7-((4-(2,6-dimethyltetrahydro-2H-pyran-4-yl)phenyl)amino)-4-methyl-2H-benzo[b][1,4]oxazin-3(4H)-one], the EC50 lay within 0.1 to 100 nM.
For the molecule `CN1CCN(CC(=O)N2Cc3ccc(Nc4ccc(N5CCC(C(F)(F)F)CC5)c(F)c4)cc3C2)CC1` [Compound 164], the EC50 is 0.1 to 100 nM.
In the case of `Cn1cncc1CN1Cc2cc(Nc3ccc(N4CCC(C(F)(F)F)CC4)cc3)ccc2C1=O` [Compound 248, 2-((1-methyl-1H-imidazol-5-yl)methyl)-5-((4-(4-(trifluoromethyl)piperidin-1-yl)phenyl)amino)isoindolin-1-one], the EC50 lay in the range of 0.1 to 100 nM.
On to `NC(=O)NCCn1cc2cc(Nc3ccc(N4CCC(C(F)(F)F)CC4)cc3)ccc2n1` [Compound 419, 1-(2-(5-((4-(4-(trifluoromethyl)piperidin-1-yl)phenyl)amino)-2H-indazol-2-yl)ethyl)urea], for which the EC50 is 0.1 to 100 nM.
The same measure, in the same setting: the same measure for `C/N=c1\n(C)c2ccc(Nc3ccc(N4CCC(C(F)(F)F)CC4)cc3)cc2n1C` [Compound 340, 1,3-dimethyl-2-(methylimino)-N-(4-(4-(trifluoromethyl)piperidin-1-yl)phenyl)-2,3-dihydro-1H-benzo[d]imidazol-5-amine]: 0.1 to 100 nM; for `Cc1cc(N2CCC(C(F)(F)F)CC2)c(F)cc1Nc1ccc2c(c1)OCC(=O)N2C` [Compound 59, 7-((5-fluoro-2-methyl-4-(4-(trifluoromethyl)piperidin-1-yl)phenyl)amino)-4-methyl-2H-benzo[b][1,4]oxazin-3(4H)-one]: 0.1 to 100 nM.
`CC1CN(c2ccc(Nc3ccc4c(C(N)=O)cn(C)c4c3)cc2)CC(C)O1` (centres unmarked) [Compound 442, 6-((4-(2,6-dimethylmorpholino)phenyl)amino)-1-methyl-1H-indole-3-carboxamide]: the EC50 was in the range of 0.1 to 100 nM.
Consider `Cc1cc(N2CCC(C(F)(F)F)CC2)ccc1Nc1ccc2c(c1)OCC(=O)N2C` [Compound 78, 4-methyl-7-((2-methyl-4-(4-(trifluoromethyl)piperidin-1-yl)phenyl)amino)-2H-benzo[b][1,4]oxazin-3(4H)-one], for which the EC50 lay within 0.1 to 100 nM.
`COc1cc(Nc2ccc3c(c2)n(C)c(=O)n3C)cnc1N1CCC(C(F)(F)F)CC1` [Compound 372, 5-((5-methoxy-6-(4-(trifluoromethyl)piperidin-1-yl)pyridin-3-yl)amino)-1,3-dimethyl-1,3-dihydro-2H-benzo[d]imidazol-2-one]: the EC50 was in the range of 0.1 to 100 nM.
Consider `Cc1cc(Nc2ccc3c(c2)OCC(=O)N3)cnc1N1C[C@@H](C)O[C@@H](C)C1` [Compound 151, 7-((6-(2,6-dimethylmorpholino)-5-methylpyridin-3-yl)amino)-2H-benzo[b][1,4]oxazin-3(4H)-one], for which the EC50 lay within 0.1 to 100 nM.
Turning to `CN1Cc2cc(Nc3ccc(N4CCCCC4)c(C(F)(F)F)c3)ccc2C1=O` [Compound 178, 2-methyl-5-((4-(piperidin-1-yl)-3-(trifluoromethyl)phenyl)amino) isoindolin-1-one], the EC50 was 0.1 to 100 nM.
Regarding `CN1Cc2cc(Nc3ccc(N4CCC(C(F)(F)F)CC4)cc3)cc(Cl)c2C1=O` [Compound 203, 7-chloro-2-methyl-5-((4-(4-(trifluoromethyl)piperidin-1-yl)phenyl)amino) isoindolin-1-one], the EC50 was 0.1 to 100 nM.
Consider `Cn1c(NCC2CC2)cc2ccc(Nc3ccc(N4CCC(C(F)(F)F)CC4)cc3)cc21` [Compound 396, N2-(cyclopropylmethyl)-1-methyl-N6-(4-(4-(trifluoromethyl)piperidin-1-yl)phenyl)-1H-indole-2,6-diamine], for which the EC50 was in the range of 0.1 to 100 nM.

The assay is the same for the next values; noted with them: Homo sapiens; HT-1080 cells treated with RSL3; 3-fold, 10-point dilution, 1.1 μM highest concentration; Table 3; read-out: EC50 (nM), ferroptosis inhibitory activity.
With `Cc1cc(N2C[C@@H](C)O[C@@H](C)C2)ccc1Nc1ccc2c(c1)CNC(=O)N2` [Compound 494, 6-((4-((2R,6S)-2,6-dimethylmorpholino)-2-methylphenyl)amino)-3,4-dihydroquinazolin-2(1H)-one], the EC50 lay in the range of 0.1 to 100 nM.
Still for that read-out and setting: the same measure for `Cc1c(Nc2ccc3c(c2)OCC(=O)N3)ccc(N2CCC(C(F)(F)F)CC2)c1F` [Compound 454, 7-((3-fluoro-2-methyl-4-(4-(trifluoromethyl)piperidin-1-yl)phenyl)amino)-2H-benzo[b][1,4]oxazin-3(4H)-one]: 0.1 to 100 nM; for `CCC(C)(C)Nc1ccc(Nc2ccc3c(c2)OCC(=O)N3)c(C)c1` [Compound 659, 7-[4-(1,1-dimethylpropylamino)-2-methyl-anilino]-4H-1,4-benzoxazin-3-one]: 0.1 to 100 nM.
Still for that read-out and setting: the same measure for `Cc1cc(N2CC(C)N(CC(F)(F)F)C(C)C2)ccc1Nc1ccc2c(c1)OCC(=O)N2` (centres unmarked) [Compound 519, 7-((4-(3,5-dimethyl-4-(2,2,2-trifluoroethyl)piperazin-1-yl)-2-methylphenyl)amino)-2H-benzo[b][1,4]oxazin-3(4H)-one]: 0.1 to 100 nM; for `Cc1cc(N2CCC(C(F)(F)F)CC2)ccc1Nc1ccc2c(c1)OCC(O)C(=O)N2` (centres unmarked) [Compound 646, 3-hydroxy-8-((2-methyl-4-(4-(trifluoromethyl)piperidin-1-yl)phenyl)amino)-2,3-dihydrobenzo[b][1,4]oxazepin-4(5H)-one]: 0.1 to 100 nM.
Regarding `COC1CN(c2ccc(Nc3ccc4c(c3)OCC(=O)N4)c(C)c2)C1` [Compound 578, 7-((4-(3-methoxyazetidin-1-yl)-2-methylphenyl)amino)-2H-benzo[b][1,4]oxazin-3(4H)-one], the EC50 was 0.1 to 100 nM.
The same measure, in the same setting: the same measure for `C[C@H]1CN(c2ccc(Nc3ccc4c(c3)OCC(=O)N4)cc2)CCN1C(=O)C(F)(F)F` [Compound 553, (S)-7-((4-(3-methyl-4-(2,2,2-trifluoroacetyl)piperazin-1-yl)phenyl)amino)-2H-benzo[b][1,4]oxazin-3(4H)-one]: 0.1 to 100 nM; for `Cc1cc(N2CCC(C(F)(F)F)CC2)ccc1Nc1ccc2[nH]cc(C(N)=O)c2c1` [Compound 571, 5-((2-methyl-4-(4-(trifluoromethyl)piperidin-1-yl)phenyl)amino)-1H-indole-3-carboxamide]: 0.1 to 100 nM.
On to `Cc1cc(N2CCC(C(F)(F)F)CC2)ccc1Nc1ccc2c(c1)CNC(=O)N2` [Compound 535, 6-((2-methyl-4-(4-(trifluoromethyl)piperidin-1-yl)phenyl)amino)-3,4-dihydroquinazolin-2(1H)-one], for which the EC50 lay in the range of 0.1 to 100 nM.
With `C[C@@H]1C[C@H](c2ccc(Nc3ccc4c(c3)OCC(=O)N4)cc2)CCO1` [Compound 484, 7-((4-((2R,4R)-2-methyltetrahydro-2H-pyran-4-yl)phenyl)amino)-2H-benzo[b][1,4]oxazin-3(4H)-one], the EC50 fell in the range of 0.1 to 100 nM.
With `Cc1cc(N2CCOC(C)C2)ccc1Nc1ccc2c(c1)CCNC2` (centres unmarked) [Compound 529, N-(2-methyl-4-(2-methylmorpholino)phenyl)-1,2,3,4-tetrahydroisoquinolin-6-amine], the EC50 was 0.1 to 100 nM.
